Assay results reported in ChEMBL document CHEMBL1158615, “Synthesis and biological evaluation of bicyclo[3.3.0] octane derivatives as dipeptidyl peptidase 4 inhibitors for the treatment of type 2 diabetes” (Bioorg Med Chem Lett, 2010).
The source made the active and inactive calls. No cut-off for these calls is given here.

Key:
Mus musculus = test: Antidiabetic activity in ICR mouse assessed as deduction of glucose excursion at 0.3 to 10 mg/kg, po administered 30 mins before oral glucose challenge measured up to 120 mins by oral glucose tolerance test; format: functional, organism-based
Dipeptidyl peptidase 4 = Dipeptidyl peptidase 4 (Homo sapiens, UniProt P27487)
Sequence of Dipeptidyl peptidase 4 (P27487 whole entry): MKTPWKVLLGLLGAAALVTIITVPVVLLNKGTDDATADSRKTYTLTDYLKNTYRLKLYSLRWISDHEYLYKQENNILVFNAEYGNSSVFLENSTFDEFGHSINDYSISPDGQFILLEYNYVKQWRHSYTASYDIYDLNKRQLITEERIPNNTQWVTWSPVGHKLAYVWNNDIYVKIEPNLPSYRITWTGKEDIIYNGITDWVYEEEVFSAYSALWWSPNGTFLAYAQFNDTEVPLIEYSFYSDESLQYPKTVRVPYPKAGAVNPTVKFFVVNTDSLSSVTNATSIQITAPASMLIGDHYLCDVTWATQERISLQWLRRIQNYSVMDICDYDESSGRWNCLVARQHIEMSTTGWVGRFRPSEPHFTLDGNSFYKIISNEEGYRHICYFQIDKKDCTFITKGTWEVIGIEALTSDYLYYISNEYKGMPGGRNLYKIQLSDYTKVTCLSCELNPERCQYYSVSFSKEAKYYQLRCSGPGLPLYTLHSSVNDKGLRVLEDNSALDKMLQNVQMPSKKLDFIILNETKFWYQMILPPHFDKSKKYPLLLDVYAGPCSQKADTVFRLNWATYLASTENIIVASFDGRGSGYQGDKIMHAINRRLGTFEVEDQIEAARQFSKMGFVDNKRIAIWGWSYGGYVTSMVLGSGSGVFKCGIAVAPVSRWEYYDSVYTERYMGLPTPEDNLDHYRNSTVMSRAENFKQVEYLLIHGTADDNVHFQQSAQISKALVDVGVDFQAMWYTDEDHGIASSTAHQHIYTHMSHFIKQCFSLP
Description: Inhibition of DPP4 by chemical luminescent assay

IC50 (Dipeptidyl peptidase 4) [nM]	SMILES	Activity (Mus musculus)
	N#C[C@@H]1CCCN1C(=O)CN[C@H]1C[C@H]2C[C@@H](O)C[C@H]2C1	Active
326	CC(C)(C)NC(=O)O[C@H]1C[C@H]2C[C@@H](NCC(=O)N3CCC[C@H]3C#N)C[C@H]2C1	
	CO[C@H]1C[C@H]2C[C@@H](NCC(=O)N3CCC[C@H]3C#N)C[C@H]2C1	Active
204	CC(C)NC(=O)O[C@H]1C[C@H]2C[C@@H](NCC(=O)N3CCC[C@H]3C#N)C[C@H]2C1	
121	N#C[C@@H]1CCCN1C(=O)CN[C@@H]1C[C@@H]2C[C@H](OC(=O)Nc3ccccc3)C[C@@H]2C1	
